In patent US8536171B2, “Method for obtaining 5-amino 2,3-dihydrophthalazine-1,4-dione alkali metal salts and their use in medicine” (Abidopharma PL SP. Z.O.O., priority 2009, dated 2013):
Where two headings read alike, the source gives them in different places.

Tests used:
[1] = background statement; cited from earlier work
[2] = tested on: rats with experimental myocardial infarction
Description: (§1) The animals of 230 to 258 g were subjected to ether narcosis for 1-3 minutes, Next, by the thoracotomy method there was achieved access to the anterior branch of the coronary artery and its lumen was closed by means of an electrode. The wound was closed by atraumatic sutures. […] The rats were divided in two groups.
(§2) The animals were being observed for 24 hours (every one in a separate cage). […] The second group of 10 rats (5 of each group) were killed after 5 days and the third group of 10 animals (5 of each group)—after 7 days. In all the rats there was performed postmortem macroscopic examination of hearts, pleura and abdominal cavity organs. The tissues were taken from the infarct focus for microscopic examination. They were retained in formalin and stained conventionally with H-E. Blood for biochemical tests was taken by heart puncture of 3 ml volume.

[3] = tested on: rats with experimental myocardial infarction; conditions: for ALT / AST / CPK / LDH1, 2: blood, 5 mg/kg per 24 hours intramuscularly, n = 5
Description: as §1, §2
In the biochemical trials there were estimated levels of creatinine kinase (CPK), lactate dehydrogenase (LDH 1-2), aspargine transaminase (AST) and alanine transaminase (ALT) before the infarct and on 1, 5 and 7 day after the infarct (Apparatus “Immunochemistry System”, Beckman Coulter, “DSL”, “Multiscan”, Labsystem; Glycomat DSS, Drew).

[4] = tested on: rats with alloxan diabetes
Text: The results were presented below in Table 2.
The results of the trials were presented below in Table 3.

rats with STZ diabetes = experiment: Rats with diabetes induced by streptozotocin (STZ); assay type: in vivo; conditions: for glycemia / level of malonic dialdehyde (MDA), oxidation stress marker: in comparison to the group of the STZ untreated rats
[5] = tested on: psychotic and neurological patients (multiple sclerosis, anxiety, depression); experiment: Clinical trials in nervous system and psychic diseases; assay type: in vivo, human
Description: In the psychotic patients in combination with the conventional treatment and in the neurological patients as monotherapy.

[6] = tested on: people after myocardial infarction; conditions: 15 patients, versus control group
Description: II-Na salt was applied also for treatment of people after myocardial infarction.

[7] = tested on: patients with acute and chronic pancreatitis
[8] = tested on: rats with experimentally developed muscles ischemia
[9] = tested on: patients suffering from diabetes of type I and type II
[10] = tested on: patients with inflammatory diseases of head, maxillofacial area and neck; conditions: above 50 patients, various forms and doses
[11] = tested on: model animals with experimentally-induced sepsis; conditions: 0% for untreated animals
[12] = blood, alloxan diabetes rats treated with II-Na salt (Table 2)
[13] = blood, alloxan diabetes rats treated with II-Na salt (Table 3)

Nn1[nH]c(=O)c2ccccc2c1=O.[Na] [compound III, 2-amino-1,2,3,4-tetrahydrophthalazine-1,4-dione sodium salt]
solubility in water [1]: easily soluble in water

Nc1cccc2c(=O)[nH][nH]c(=O)c12.[Na] [II-Na salt, 5-amino-2,3-dihydrophthalazine-1,4-dione sodium salt]
polymorphic-nucleated leucocytes in the demarcation zone ([2]; fifth day): not observed | postoperative wound healed by first intension (per primam) ([2]; fifth day, 4 rats without II-Na salt): all 5 rats | leucocytes migration ([2]; first 24 hours after the infarct): not observed | fibrosis (Weinert's staining) ([2]; fourteenth day, 5 mg/kg): only few traits of fibrosis | polymorphic-nucleated leucocytes ([2]; fourteenth day, 5 mg/kg): not observed | regeneration processes of damaged tissues ([2]; overall conclusion): positive influence on regeneration processes of damaged tissues | capillary vessels in the infarct zone ([2]; seventh day): normal of the sinusoidal type | ALT ([3]; fifth day after infarct): 0.271 ± 0.059 µmol/L | AST ([3]; fifth day after infarct): 0.204 ± 0.03 µmol/L | CPK ([3]; fifth day after infarct): 405.28 ± 27.84 µmol/L | LDH1, 2 ([3]; fifth day after infarct): 187.94 ± 34.37 µmol/L | ALT ([3]; first day after infarct): 0.178 ± 0.028 µmol/L | AST ([3]; first day after infarct): 0.254 ± 0.034 µmol/L | CPK ([3]; first day after infarct): 322.56 ± 43.79 µmol/L | LDH1, 2 ([3]; first day after infarct): 248.84 ± 41.10 µmol/L | ALT ([3]; seventh day after infarct): 0.24 ± 0.024 µmol/L | AST ([3]; seventh day after infarct): 0.225 ± 0.024 µmol/L | CPK ([3]; seventh day after infarct): 291.35 ± 18.9 µmol/L | LDH1, 2 ([3]; seventh day after infarct): 175.5 ± 25.89 µmol/L | normalization of the tested blood parameters ([3]; conclusion on Table 1): quicker normalization of all the tested parameters | IGF-1 ([4]; blood, alloxan diabetes rats treated with II-Na salt): 699.13 ± 81.4 ng/mL | IGF-2 [4, 12]: 37.9 ± 1.65 ng/mL | Insulin [4, 12]: 0.724 ± 0.08 mg/mL | IGF-2 [4, 13]: 37.9 ± 1.65 ng/mL | Insulin [4, 13]: 7.24e-07 ± 8e-08 mg/mL | Glucose ([4]; blood, alloxan diabetes rats treated with II-Na salt, 5 mg per kg per 24 hours for a month, sodium salt): 4.16 ± 0.56 mmol/L | Glycated hemoglobin (Hb A1C) ([4]; blood, alloxan diabetes rats treated with II-Na salt, sodium salt): 9.05 ± 0.58 % | IGF-1/IGF-2 ([4]; ratio, alloxan diabetes rats treated with II-Na salt): 16.2 ± 2.4 | glycemia (rats with STZ diabetes): 62% | level of malonic dialdehyde (MDA), oxidation stress marker (rats with STZ diabetes): 48.7% | level of glutathione (GSH), oxidation stress marker (rats with STZ diabetes; result in words): does not change | lymphocytic profile and cytokines ([5]; II-Na salt 100 mg per 24 hours intramuscularly for 30 days): normalization of the lymphocytic profile and cytokines | disease symptoms ([5]; human, in vivo): disease symptoms reduction | preventive use in the period of remission ([5]; spring and autumn, 100 mg/d, 10 injections every day and 10 every second day): long-time remission | pain discomfort in the chest ([6]; 100/200 mg per 24 hours intramuscular for seven days plus conventional therapy): quicker reduction of pain discomfort in the chest | blood biochemical parameters (CPK, LDH, ALT, AST) and x-ray image [6]: quicker normalization of blood biochemical parameters | starting formation of pseudocysts ([7]; 2 patients, after treatment): disappeared | septic complications ([7]; 25 patients, conventional therapy plus II-Na salt): one patient | normalization of the laboratory tests results ([7]; after a month, of 25 patients): twenty two patients | patients who could come back to nutrition per os ([7]; after three weeks of treatment, of 25 patients): twenty patients | insulin level ([7]; after two weeks of treatment): raised nearly to normal | reduction of the glucose level ([7]; after two weeks of treatment): two times | reduction Hb1AC ([7]; after two weeks of treatment, fifteen patients with reduced insulin level): in six patients to the normal range | insulin administration ([7]; after two weeks of treatment, from up to 40 IU/day): 10 IU/day | pain disappeared in all patients (time) ([7]; control group: above two weeks): seven days | pain symptoms reduced in all the patients (time) ([7]; day of treatment): second day | effects observed in the pancreas ([7]; research (rats, 5 mg per kg per 24 hours for a month) and clinical trials): inhibition of inflammatory and necrotic processes in the pancreas | Number of capill. in 1 mm^3 ([8]; Ischaemia-12 days): 152.3 ± 12.7 in 1 mm^3 | Number of capill. in 1 mm^3 ([8]; Ischaemia-29 days): 236.4 ± 16.9 in 1 mm^3 | glycemia level ([9]; after a week of treatment, from 7.5 mmol/l, 100 mg intramuscular injection): 5.1 mmol/L | insulin dose ([9]; after a week of treatment, reduced from 45 IU): 15 IU per day | cholesterol level ([9]; patients with diabetes of type II): slight reduction | effect on inflammatory state [10]: quicker tissues regeneration, inhibition of apoptosis and quicker symptoms subsidence or remission maintenance | viability of rats [11]: 80%

CN(CCOc1ccc(CC2SC(=O)NC2=O)cc1)c1ccccn1 (centres unmarked) [Rosiglytazone, reference compound]
glycemia (rats with STZ diabetes): 55% | level of malonic dialdehyde (MDA), oxidation stress marker (rats with STZ diabetes): 54% | level of glutathione (GSH), oxidation stress marker (rats with STZ diabetes; in comparison to the healthy rats): 127%

Nc1cccc2c(=O)[nH][nH]c(=O)c12 [luminol, 5-Amino-2,3-dihydrophthalazine-1,4-dione]
solubility in water [1]: poorly soluble in water
